Assay results: PMC6658524, “Lysosomal degradation of newly formed insulin granules contributes to β cell failure in diabetes” (Nature Communications, 2019)

How the values were obtained:
Assay in all cases: biochemical
Parameters in all cases: Eurofins KinaseProfiler panel of 60 kinases, per cent inhibition
cKit(h) = target: T1, cKit(h) (Homo sapiens, UniProt P10721)
T1 construct: gene KIT
Source text: (§1) A more detailed account of the discovery, chemistry and biochemical properties of this novel class of selective p38δ inhibitors will be given elsewhere.

AMPKα2(h) = target: T2, AMPKα2(h) (Homo sapiens, UniProt P54646)
T2 construct: gene PRKAA2
Source text: as §1

MELK(h) = MELK(h) (Homo sapiens, UniProt Q14680)
Chain of MELK(h) (Q14680 whole entry): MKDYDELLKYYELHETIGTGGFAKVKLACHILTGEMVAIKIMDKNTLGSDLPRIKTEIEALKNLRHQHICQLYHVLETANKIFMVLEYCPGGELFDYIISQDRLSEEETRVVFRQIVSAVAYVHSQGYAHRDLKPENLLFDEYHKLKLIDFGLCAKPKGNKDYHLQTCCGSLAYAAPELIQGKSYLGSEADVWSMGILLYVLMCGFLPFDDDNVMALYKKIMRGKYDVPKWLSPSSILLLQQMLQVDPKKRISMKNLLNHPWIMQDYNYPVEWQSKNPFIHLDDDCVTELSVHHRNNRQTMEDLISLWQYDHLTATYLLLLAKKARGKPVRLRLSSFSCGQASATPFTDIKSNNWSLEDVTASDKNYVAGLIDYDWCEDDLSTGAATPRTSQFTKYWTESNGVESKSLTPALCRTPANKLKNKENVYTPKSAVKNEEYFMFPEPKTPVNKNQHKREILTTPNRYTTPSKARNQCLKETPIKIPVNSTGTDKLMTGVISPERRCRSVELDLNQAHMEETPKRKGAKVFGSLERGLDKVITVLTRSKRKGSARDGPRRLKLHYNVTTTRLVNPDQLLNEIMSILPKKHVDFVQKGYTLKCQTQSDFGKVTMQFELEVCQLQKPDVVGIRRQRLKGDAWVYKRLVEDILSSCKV
Source text: as §1

Lyn(h) = Lyn(h) (Homo sapiens, UniProt P07948)
Chain of Lyn(h) (P07948 whole entry): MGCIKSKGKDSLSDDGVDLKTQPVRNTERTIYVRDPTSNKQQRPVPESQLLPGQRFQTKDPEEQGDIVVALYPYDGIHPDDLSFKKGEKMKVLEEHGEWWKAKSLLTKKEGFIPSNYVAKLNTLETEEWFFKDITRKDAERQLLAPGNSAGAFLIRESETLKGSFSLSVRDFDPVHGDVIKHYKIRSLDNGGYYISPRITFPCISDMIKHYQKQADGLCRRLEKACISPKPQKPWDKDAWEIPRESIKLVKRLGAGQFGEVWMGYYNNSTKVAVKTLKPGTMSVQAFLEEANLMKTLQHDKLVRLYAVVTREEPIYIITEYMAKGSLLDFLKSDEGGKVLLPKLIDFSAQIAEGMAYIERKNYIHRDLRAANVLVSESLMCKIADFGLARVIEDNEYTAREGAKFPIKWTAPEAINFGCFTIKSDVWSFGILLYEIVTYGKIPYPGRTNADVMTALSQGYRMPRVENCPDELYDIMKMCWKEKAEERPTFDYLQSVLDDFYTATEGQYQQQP
Source text: as §1

EphA3(h) = EphA3(h) (Homo sapiens, UniProt P29320)
Source text: as §1

PKA(h) = target: T3, PKA(h) (Homo sapiens, UniProt P17612)
T3 construct: gene PRKACA
Source text: as §1

DYRK2(h) = DYRK2(h) (Homo sapiens, UniProt Q92630)
Chain of DYRK2(h) (Q92630 whole entry): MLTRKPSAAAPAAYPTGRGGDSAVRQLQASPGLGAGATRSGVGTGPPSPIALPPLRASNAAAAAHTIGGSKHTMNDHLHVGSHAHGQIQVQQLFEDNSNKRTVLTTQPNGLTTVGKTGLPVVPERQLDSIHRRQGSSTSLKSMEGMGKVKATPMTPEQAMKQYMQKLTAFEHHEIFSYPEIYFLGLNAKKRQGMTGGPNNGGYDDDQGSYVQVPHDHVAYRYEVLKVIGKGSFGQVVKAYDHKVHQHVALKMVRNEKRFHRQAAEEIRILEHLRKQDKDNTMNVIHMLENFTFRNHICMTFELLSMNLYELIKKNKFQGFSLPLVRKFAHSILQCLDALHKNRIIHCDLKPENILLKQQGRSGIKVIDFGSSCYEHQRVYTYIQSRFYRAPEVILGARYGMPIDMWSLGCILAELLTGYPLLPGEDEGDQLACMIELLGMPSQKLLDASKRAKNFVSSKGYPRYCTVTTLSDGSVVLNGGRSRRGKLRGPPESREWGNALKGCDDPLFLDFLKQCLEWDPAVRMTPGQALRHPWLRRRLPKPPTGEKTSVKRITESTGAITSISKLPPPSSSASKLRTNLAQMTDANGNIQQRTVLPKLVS
Source text: as §1

CDK5/p25(h) = target: T4, CDK5/p25(h) (Homo sapiens, UniProt Q00535)
T4 construct: p25
Source text: as §1

Plk1(h) = Plk1(h) (Homo sapiens, UniProt P53350)
Chain of Plk1(h) (P53350 whole entry): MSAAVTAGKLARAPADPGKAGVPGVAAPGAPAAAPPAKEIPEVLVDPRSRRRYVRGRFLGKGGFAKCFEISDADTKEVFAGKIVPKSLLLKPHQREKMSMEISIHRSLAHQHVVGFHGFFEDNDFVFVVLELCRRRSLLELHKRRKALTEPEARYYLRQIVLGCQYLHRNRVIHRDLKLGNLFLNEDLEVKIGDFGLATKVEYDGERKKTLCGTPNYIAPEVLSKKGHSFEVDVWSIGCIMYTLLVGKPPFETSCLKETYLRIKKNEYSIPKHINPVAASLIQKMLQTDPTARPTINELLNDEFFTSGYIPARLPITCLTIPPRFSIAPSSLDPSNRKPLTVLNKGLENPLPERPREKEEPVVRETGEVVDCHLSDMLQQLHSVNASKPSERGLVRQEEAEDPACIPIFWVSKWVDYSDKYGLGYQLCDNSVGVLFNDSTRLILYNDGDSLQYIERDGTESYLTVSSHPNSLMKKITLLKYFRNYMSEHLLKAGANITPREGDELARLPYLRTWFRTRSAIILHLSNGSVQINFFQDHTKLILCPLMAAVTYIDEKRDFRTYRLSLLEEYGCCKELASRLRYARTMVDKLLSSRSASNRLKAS
Source text: as §1

JAK3(h) = JAK3(h) (Homo sapiens, UniProt P52333)
Chain of JAK3(h) (P52333 whole entry): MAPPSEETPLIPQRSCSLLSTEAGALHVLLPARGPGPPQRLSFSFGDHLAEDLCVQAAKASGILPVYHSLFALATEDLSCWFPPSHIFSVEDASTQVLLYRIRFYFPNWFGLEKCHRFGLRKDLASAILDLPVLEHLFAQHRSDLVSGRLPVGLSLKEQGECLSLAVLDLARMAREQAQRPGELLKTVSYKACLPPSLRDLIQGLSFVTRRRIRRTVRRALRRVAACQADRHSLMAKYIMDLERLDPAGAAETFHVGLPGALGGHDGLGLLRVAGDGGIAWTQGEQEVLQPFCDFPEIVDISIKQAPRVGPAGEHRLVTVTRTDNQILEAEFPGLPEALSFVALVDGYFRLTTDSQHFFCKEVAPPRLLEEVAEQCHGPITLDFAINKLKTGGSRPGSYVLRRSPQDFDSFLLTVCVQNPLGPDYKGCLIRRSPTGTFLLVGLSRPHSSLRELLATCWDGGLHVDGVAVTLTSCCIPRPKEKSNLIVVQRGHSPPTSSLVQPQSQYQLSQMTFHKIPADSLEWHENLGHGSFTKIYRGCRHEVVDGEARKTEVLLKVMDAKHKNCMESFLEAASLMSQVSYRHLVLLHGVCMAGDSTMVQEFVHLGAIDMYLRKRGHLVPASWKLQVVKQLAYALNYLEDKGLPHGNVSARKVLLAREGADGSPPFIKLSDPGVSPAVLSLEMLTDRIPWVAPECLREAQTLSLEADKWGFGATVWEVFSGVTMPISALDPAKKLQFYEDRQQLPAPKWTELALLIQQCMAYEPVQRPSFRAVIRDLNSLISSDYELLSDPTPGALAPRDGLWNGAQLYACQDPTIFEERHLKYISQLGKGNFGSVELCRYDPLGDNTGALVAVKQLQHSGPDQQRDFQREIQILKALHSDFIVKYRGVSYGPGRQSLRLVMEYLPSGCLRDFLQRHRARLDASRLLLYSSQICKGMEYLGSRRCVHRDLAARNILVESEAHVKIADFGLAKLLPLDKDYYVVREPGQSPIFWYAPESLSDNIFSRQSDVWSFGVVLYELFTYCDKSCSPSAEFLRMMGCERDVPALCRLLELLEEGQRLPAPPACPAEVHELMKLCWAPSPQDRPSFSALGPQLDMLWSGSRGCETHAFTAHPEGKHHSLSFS
Source text: as §1

CDK1/cyclinB(h) = CDK1/cyclinB(h) (Homo sapiens, UniProt P06493)
Source text: as §1

[1] = target: T5, PI3 Kinase (p110α/p85α)(h) (Homo sapiens, UniProt P42336)
T5 construct: gene PIK3CA; p110α/p85α
Source text: as §1

PAK4(h) = PAK4(h) (Homo sapiens, UniProt O96013)
Source text: as §1

Pim-1(h) = target: T6, Pim-1(h) (Homo sapiens, UniProt P11309)
T6 construct: gene PIM1
Source text: as §1

PKCθ(h) = target: T7, PKCθ(h) (Homo sapiens, UniProt Q04759)
T7 construct: gene PRKCQ
Source text: as §1

DDR2(h) = DDR2(h) (Homo sapiens, UniProt Q16832)
Source text: as §1

PKCζ(h) = target: T8, PKCζ(h) (Homo sapiens, UniProt Q05513)
T8 construct: gene PRKCZ
T8 sequence (Q05513 whole entry): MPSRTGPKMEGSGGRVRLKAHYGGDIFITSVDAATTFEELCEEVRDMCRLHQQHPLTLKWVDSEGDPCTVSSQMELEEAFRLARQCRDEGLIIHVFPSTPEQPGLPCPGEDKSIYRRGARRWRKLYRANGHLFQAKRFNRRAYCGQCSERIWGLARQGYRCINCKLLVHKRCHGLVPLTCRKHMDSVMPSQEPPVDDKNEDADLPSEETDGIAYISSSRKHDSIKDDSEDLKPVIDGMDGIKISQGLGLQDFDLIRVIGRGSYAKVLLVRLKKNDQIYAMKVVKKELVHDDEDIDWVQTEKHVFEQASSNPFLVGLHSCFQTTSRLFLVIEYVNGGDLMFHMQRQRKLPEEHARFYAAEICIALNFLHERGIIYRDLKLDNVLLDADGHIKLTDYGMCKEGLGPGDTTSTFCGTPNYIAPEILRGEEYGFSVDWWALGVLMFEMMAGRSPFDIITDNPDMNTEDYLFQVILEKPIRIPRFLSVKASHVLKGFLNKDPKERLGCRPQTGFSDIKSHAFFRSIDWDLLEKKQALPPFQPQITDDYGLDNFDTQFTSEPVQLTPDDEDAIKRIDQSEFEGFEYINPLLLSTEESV
Source text: as §1

MAPK1(h) = target: T9, MAPK1(h) (Homo sapiens, UniProt P27361)
T9 construct: gene MAPK3
T9 sequence (P27361 whole entry): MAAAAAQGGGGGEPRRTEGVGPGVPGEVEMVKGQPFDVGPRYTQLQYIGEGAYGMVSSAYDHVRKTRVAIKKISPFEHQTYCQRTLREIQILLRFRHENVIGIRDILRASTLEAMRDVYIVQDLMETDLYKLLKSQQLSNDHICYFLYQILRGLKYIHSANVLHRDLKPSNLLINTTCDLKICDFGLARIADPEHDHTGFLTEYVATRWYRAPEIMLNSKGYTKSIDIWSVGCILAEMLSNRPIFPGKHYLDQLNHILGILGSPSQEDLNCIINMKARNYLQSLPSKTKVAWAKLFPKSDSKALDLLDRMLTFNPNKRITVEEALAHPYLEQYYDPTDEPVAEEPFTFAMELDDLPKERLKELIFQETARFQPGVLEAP
Source text: as §1

GSK3α(h) = target: T10, GSK3α(h) (Homo sapiens, UniProt P49840)
T10 construct: gene GSK3A
T10 sequence (P49840 whole entry): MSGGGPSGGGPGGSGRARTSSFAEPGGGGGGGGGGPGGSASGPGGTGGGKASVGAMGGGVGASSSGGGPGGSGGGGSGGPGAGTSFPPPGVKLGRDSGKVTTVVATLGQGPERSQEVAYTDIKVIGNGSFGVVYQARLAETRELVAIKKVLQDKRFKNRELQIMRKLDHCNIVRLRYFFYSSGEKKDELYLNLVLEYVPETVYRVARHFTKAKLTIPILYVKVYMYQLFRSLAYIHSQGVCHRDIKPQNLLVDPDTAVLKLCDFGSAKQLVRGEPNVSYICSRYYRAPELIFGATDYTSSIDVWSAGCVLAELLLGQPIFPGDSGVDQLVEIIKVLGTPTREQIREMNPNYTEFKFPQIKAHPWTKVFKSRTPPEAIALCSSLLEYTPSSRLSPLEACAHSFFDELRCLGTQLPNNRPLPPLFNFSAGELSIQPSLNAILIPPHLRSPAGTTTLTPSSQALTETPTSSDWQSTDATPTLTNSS
Source text: as §1

Syk(h) = Syk(h) (Homo sapiens, UniProt P43405)
Source text: as §1

PKCε(h) = target: T11, PKCε(h) (Homo sapiens, UniProt Q02156)
T11 construct: gene PRKCE
Source text: as §1

Ron(h) = target: T12, Ron(h) (Homo sapiens, UniProt Q04912)
T12 construct: gene MST1R
Source text: as §1

Met(h) = Met(h) (Homo sapiens, UniProt P08581)
Source text: as §1

PKCβII(h) = target: T13, PKCβII(h) (Homo sapiens, UniProt P05771)
T13 construct: gene PRKCB; isoform beta II
Source text: as §1

Q: Which results are given for `CCN1CCOc2nc(N3CCOCC3)nc(-c3ccc(NC(=O)OC)cc3)c2C1=O` [Compound A]?
A: inhibition at 1 µM (cKit(h)): 4%; inhibition at 10 µM (cKit(h)): 6%; inhibition at 1 µM (AMPKα2(h)): -5%; inhibition at 10 µM (AMPKα2(h)): 5%; inhibition at 1 µM (MELK(h)): 2%; inhibition at 10 µM (MELK(h)): 9%; inhibition at 1 µM (Lyn(h)): -2%; inhibition at 10 µM (Lyn(h)): 13%; inhibition at 1 µM (EphA3(h)): 8%; inhibition at 10 µM (EphA3(h)): 12%; inhibition at 1 µM (PKA(h)): -8%; inhibition at 10 µM (PKA(h)): -22%; inhibition at 1 µM (DYRK2(h)): -10%; inhibition at 10 µM (DYRK2(h)): -10%; inhibition at 1 µM (CDK5/p25(h)): -2%; inhibition at 10 µM (CDK5/p25(h)): -2%; inhibition at 1 µM (Plk1(h)): 2%; inhibition at 10 µM (Plk1(h)): 11%; inhibition at 1 µM (JAK3(h)): 0%; inhibition at 10 µM (JAK3(h)): -5%; inhibition at 1 µM (CDK1/cyclinB(h)): -5%; inhibition at 10 µM (CDK1/cyclinB(h)): 4%; inhibition at 1 µM [1]: -1%; inhibition at 10 µM [1]: 2%; inhibition at 1 µM (PAK4(h)): -2%; inhibition at 10 µM (PAK4(h)): 4%; inhibition at 1 µM (Pim-1(h)): -6%; inhibition at 10 µM (Pim-1(h)): -7%; inhibition at 1 µM (PKCθ(h)): 7%; inhibition at 10 µM (PKCθ(h)): 7%; inhibition at 1 µM (DDR2(h)): 6%; inhibition at 10 µM (DDR2(h)): 15%; inhibition at 1 µM (PKCζ(h)): 0%; inhibition at 10 µM (PKCζ(h)): 10%; inhibition at 1 µM (MAPK1(h)): 0%; inhibition at 10 µM (MAPK1(h)): 5%; inhibition at 1 µM (GSK3α(h)): -9%; inhibition at 10 µM (GSK3α(h)): -7%; inhibition at 1 µM (Syk(h)): 4%; inhibition at 10 µM (Syk(h)): 20%; inhibition at 1 µM (PKCε(h)): 8%; inhibition at 10 µM (PKCε(h)): 12%; inhibition at 1 µM (Ron(h)): 10%; inhibition at 10 µM (Ron(h)): 9%; inhibition at 1 µM (Met(h)): -16%; inhibition at 10 µM (Met(h)): -7%; inhibition at 1 µM (PKCβII(h)): 0%; inhibition at 10 µM (PKCβII(h)): 1%
